# Results taken from patent US20030129193A1 (priority 2001, published 2003).
# How the values were obtained:
# [1] = system: L540rec human Hodgkin's lymphoma tumors; assay: Treatment studies, L540 Hodgkin's tumor necrosis; format: in vivo, SCID mice
# Method: For in vivo studies, a metastasizing mouse model for human Hodgkin's lymphoma was used. 1×10^7 L540rec cells were injected subcutaneously into the right flank of SCID mice resulting in a subcutaneous tumor with lymph node metastases in the regional lymph node stations. Subcutanous tumors were measured with a caliper in three perpendicular directions a, b, and c, and volumes calculated according to the formula V=π/6×a×b×c.
# Treatment was initiated when subcutaneous tumors reached a size of 150 to 300 μl. Reagents were administered into the lateral tail vein.
# Mice were closely observed after treatment for clinical signs of toxicity and clinical status was documented at defined time points (5 minutes, 10 minutes, 15 minutes, 30 minutes, 1 hour, 2 hours, 24 hours, 48 hours, 72 hours). Blood samples were taken from the tail vein at 1 hour, 2 hours and 24 hours to measure TNFα blood levels. […]
# Tissue samples harvested at the time of autopsy were fixed in 3% NBF (normal buffered formalin) and embedded in paraffin wax. […] Tissue sections were analyzed on a light microscope by two independent investigators and histological findings were documented. Tumor sections with necrotic areas were scanned with a GS-700 imaging densitometer (Biorad, Hercules, Calif.) and areas of necrosis were calculated as % of total section area. […]
# [2] = system: thrombin-antithrombin-complexes (TAT); assay: Assessment of coagulation parameters: TAT; format: in vivo, mice; details: plasma, three days after i.v. treatment, tTF alone
# Method: At the time of autopsy, citrated blood was sampled from the vena cava and thrombocyte-free plasma was prepared by centrifugation. The plasma was stored at −80° C. until further analysis. Thrombin-Antithrombin-complexes were detected with the Enzygnost® TAT micro-assay (Dade-Behring, Marburg, Germany) according to the manufacturer's instructions. ATIII levels were determined using the Coamatic® antithrombin-assay (Haemochrom, Essen, Germany) following the manufacturer's instructions. Changes in the blood levels of thrombin and plasmin were detected by mixing citrated plasma with the respective chromogenic substrates S2238 and S2403 (Haemochrom, Essen, Germany) and measuring the increase of the absorption at 405 nm by an ELISA reader.
# [3] = system: C1300 mouse neuroblastoma; assay: In vivo tumor thrombosis, C1300; parameters: species or system BALB/c nu/nu mice; details: large C1300 tumors (>1000 mm^3), 24 hours after injection
# From the text: Tumor test systems were of four types: i) 3LL mouse lung carcinoma growing subcutaneously in C57BL/6 mice; ii) C1300 mouse neuroblastoma growing subcutaneously in BALB/c nu/nu mice; iii) HT29 human colorectal carcinoma growing subcutaneously in BALB/c nu/nu mice; and iv) C1300 Muγ mouse neuroblastoma growing subcutaneously in BALB/c nu/nu mice. The C1300 Muγ tumor is an interferon-γ secreting transfectant derived from the C 1300 tumor (Watanabe et al., 1989).
# To establish tumors, 10^6 to 1.5×10^7 tumor cells were injected subcutaneously into the right anterior flank of the mice. When tumors had grown to various sizes, mice were randomly assigned to different study groups. […] Fab′, or bispecific antibody. Other mice received equivalent quantities IgG, Fab′ or bispecific antibody alone. The injections were performed slowly into one of the tail veins over approximately 45 seconds, usually followed by 200 μl of saline.
# Twenty-four hours after being injected with tTF or immunoglobulin-tTF conjugates, the mice were anesthetized with metophane and were exsanguinated by perfusion with heparinized saline. Tumors and normal tissues were excised and immediately fixed in 3% (v/v) formalin. Paraffin sections were cut and stained with hematoxylin and eosin. Blood vessels having open lumens containing erythrocytes and blood vessels containing thrombi were counted. […]
# [4] = system: factor X; assay: Cell free two-stage coagulation assay; format: biochemical; details: Factor Xa generation, absorption at 405 nm
# Method: In vitro coagulation activity was tested in a cell free two-stage coagulation assay. Negatively charged phospholipids at a final concentration of 50 μM (phosphatidylserine and phosphatidylcholine from Sigma, Taufkirchen, Germany) in calcium buffer (50 mM Tris pH=8.1, 150 mM NaCl, 2 mg/ml BSA, 5 mM Ca^++) were mixed with Factor VIIa (Sigma, Taufkirchen, Germany) at 10 nM and with samples or controls and incubated for five min at 37° C. Factor X was added to a final concentration of 30 nM and samples were incubated for 5 min at room temperature. Finally, the chromogenic substrate S2765 (Haemochrom, Essen, Germany) was added in a 100 mM EDTA solution. Factor Xa generation as a measure of Tissue Factor activity was determined by the increase in the absorption at 405 nm.
# Negatively charged phospholipids at a final concentration of 50 μM (phosphatidylserine and phosphatidylcholine from Sigma, St. Louis, Mo.) in calcium buffer (50 mM Tris pH=8.1, 150 mM NaCl, 2 mg/ml BSA, 5 mM Ca^++) were mixed with Factor VIIa (Sigma. St. Louis, Mo.) at 10 nM and with samples or controls and incubated for five minutes at 37° C. Factor X (Sigma, St. Louis, Mo.) was added to a final concentration of 30 nM and samples were incubated for 5 minutes at room temperature. […] Factor Xa generation as a measure of tissue factor activity was determined by the increase in the absorption at 405 nm.
# [5] = system: L540 human Hodgkin's tumors; assay: Anti-VCAM-1•tTF coaguligand, L540; format: in vivo, SCID mice
# Method: Mice bearing subcutaneous L540 tumors were injected intravenously with anti-VCAM-1 antibody and, two hours later, the mice were exsanguinated. The tumor and normal organs were removed and frozen sections were prepared and examined immunohistochemically to determine the location of the antibody. […] No localization of anti-VCAM-1 antibody was found in testis or any normal organ except heart and lung.
# Before coaguligand injection, tumors were viable, having a uniform morphology lacking regions of necrosis. […] Within four hours of coaguligand injection, 40-70% of blood vessels were thrombosed, despite the initial staining of only 20-30% of tumor blood vessels. The thrombosed vessels contained occlusive platelet aggregates, packed erythrocytes and fibrin. In several regions, the blood vessels had ruptured, spilling erythrocytes into the tumor interstitium.
# The drug was administered i.v. 3 times at intervals of 4 days.
substance,measurement,setting,value
tTF: extracellular domain of the mature Tissue Factor protein (amino acid 1-219),tumor tissue necrosis,[1]; 4 μg or 16 μg endotoxin-free tTF alone,0%
same,% tumor necrosis,"[1]; Table 2, tTF alone",4%
same,TAT,[2],25.4 ng/mL
same,thrombosis of tumor vessels,[3],virtually all vessels were thrombosed
same,coagulation activities before and after endotoxin removal,[4],the same
same,effect on tumor growth,"[5]; 0.3-0.4 cm^3 tumors, i.v. 3 times at intervals of 4 days",did not affect tumor growth
same,control reagents that caused thrombosis of tumor vessels,[5]; equivalent quantities,None
